Starred links: 1 amine or outer side, 2 acyl side, 3 side chain; linkers in the order of their positions; H or OH if unused. Non-standard residues stand in square brackets, D forms with d. Residues, ends and D or L forms follow the SMILES beside them. Groups on a side chain read outwards from the residue. *: point of attachment. Phe(4-CH2NH2) = NCc1ccc(C[C@H](N)C(=O)O)cc1; C18 diacid = O=C(O)CCCCCCCCCCCCCCCCC(=O)*; C16 diacid = O=C(O)CCCCCCCCCCCCCCC(=O)*; γGlu = O=C(O)[C@H](CCC(=O)[*:2])N[*:1]; Met(O2) = CS(=O)(=O)CC[C@H](N)C(=O)O; αMeD = C[C@](N)(CC(=O)O)C(=O)O; AEEA = NCCOCCOCC(=O)O; Aib = CC(C)(N)C(=O)O
Columns and labels:
human GCGR = biological target: T1, human GCGR (Homo sapiens, UniProt P47871); assay: cAMP activity assay, cells expressing human GCGR; assay type: cell-based; conditions: for EC50: cAMP production, cells expressing human GCGR, assay buffer with or without 20% human serum (not stated which), read-out: GCGR EC50 human; for hGCGR/hGLP1R (hTone): ratio of human GCGR EC50 to human GLP1R EC50
T1 construct: expressed in transfected cells; kept under Blasticidin and Hygromycin selection
Method in brief: (§1)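 Peptides as 10-point titrations from DMSO tested on cells expressing human GLP1R or GCGR. cAMP measured by luminescent kit after overnight room-temperature incubation in the dark. EC50 from four-parameter logistic fit; native GLP-1 and glucagon as controls.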

human GLP1R = biological target: T2, human GLP1R (Homo sapiens, UniProt P43220); assay: cAMP activity assay, cells expressing human GLP1R; assay type: cell-based; conditions: cAMP production, assay buffer with or without 20% human serum (not stated which)
T2 construct: expressed in transfected cells; kept under Blasticidin and Hygromycin selection
Method in brief: as §1

T1 sequence (P47871 26-477): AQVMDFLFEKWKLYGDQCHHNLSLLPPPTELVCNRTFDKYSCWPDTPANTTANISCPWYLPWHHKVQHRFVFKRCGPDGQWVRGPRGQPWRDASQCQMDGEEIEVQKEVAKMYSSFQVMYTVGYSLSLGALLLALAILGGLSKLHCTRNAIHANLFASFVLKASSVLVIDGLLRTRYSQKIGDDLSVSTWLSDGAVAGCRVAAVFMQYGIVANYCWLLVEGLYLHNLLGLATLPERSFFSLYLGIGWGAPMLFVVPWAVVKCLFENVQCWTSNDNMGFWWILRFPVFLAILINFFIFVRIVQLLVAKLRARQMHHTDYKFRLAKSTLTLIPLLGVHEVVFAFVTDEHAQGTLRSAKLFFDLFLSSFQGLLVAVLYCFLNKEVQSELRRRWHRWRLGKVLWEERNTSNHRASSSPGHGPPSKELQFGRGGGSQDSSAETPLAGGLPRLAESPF
T2 sequence (P43220 24-463): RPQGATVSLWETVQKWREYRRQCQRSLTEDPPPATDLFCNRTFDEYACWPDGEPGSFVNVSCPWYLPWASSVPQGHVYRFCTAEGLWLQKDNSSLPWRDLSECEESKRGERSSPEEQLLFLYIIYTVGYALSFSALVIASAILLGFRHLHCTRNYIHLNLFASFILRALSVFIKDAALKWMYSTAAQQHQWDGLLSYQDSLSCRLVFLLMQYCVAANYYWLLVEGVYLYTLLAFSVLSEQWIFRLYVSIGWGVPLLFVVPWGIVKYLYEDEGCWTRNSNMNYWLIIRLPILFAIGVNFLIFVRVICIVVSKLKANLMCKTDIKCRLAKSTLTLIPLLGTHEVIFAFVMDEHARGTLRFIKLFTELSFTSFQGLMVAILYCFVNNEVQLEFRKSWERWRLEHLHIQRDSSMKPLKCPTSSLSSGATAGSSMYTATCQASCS

EC50 (human GCGR)	hGCGR/hGLP1R (hTone) (human GCGR)	EC50 (human GLP1R)	SMILES
0.52 nM	4.68	0.11 nM	CC(C)C[C@H](NC(=O)[C@H](Cc1ccc(O)cc1)NC(=O)[C@H](CCCCN)NC(=O)[C@H](CO)NC(=O)[C@H](Cc1ccc(O)cc1)NC(=O)[C@H](CC(=O)O)NC(=O)[C@H](CO)NC(=O)[C@@H](NC(=O)[C@H](Cc1ccccc1)NC(=O)[C@@H](NC(=O)CNC(=O)[C@H](CCC(N)=O)NC(=O)C(C)(C)NC(=O)[C@@H](N)Cc1c[nH]cn1)[C@@H](C)O)[C@@H](C)O)C(=O)N[C@@H](CC(=O)O)C(=O)N[C@@H](CCC(=O)O)C(=O)N[C@@H](CCCNC(=N)N)C(=O)N[C@@H](C)C(=O)N[C@@H](C)C(=O)N[C@@H](Cc1ccc(CNC(=O)COCCOCCNC(=O)COCCOCCNC(=O)CC[C@H](NC(=O)CCCCCCCCCCCCCCC(=O)O)C(=O)O)cc1)C(=O)N[C@@H](CC(=O)O)C(=O)N[C@@H](Cc1ccccc1)C(=O)N[C@H](C(=O)N[C@@H](CCC(N)=O)C(=O)N[C@@H](Cc1c[nH]c2ccccc12)C(=O)N[C@@H](CC(C)C)C(=O)N[C@@H](CC(C)C)C(=O)N[C@@H](CCCCN)C(=O)N[C@H](C(N)=O)[C@@H](C)O)C(C)C [compound 26] (H-H[Aib]QGTFTSDYSKYLDERAA[Phe(4-CH2NH2)]([AEEA-AEEA-γGlu-C16 diacid])DFVQWLLKT-NH2)
1.98 nM	3.22	0.67 nM	CC(C)C[C@H](NC(=O)[C@H](Cc1ccc(O)cc1)NC(=O)[C@H](CCCCN)NC(=O)[C@H](CO)NC(=O)[C@H](CCCCNC(=O)CC[C@H](NC(=O)CC[C@H](NC(=O)CCCCCCCCCCCCCCC(=O)O)C(=O)O)C(=O)O)NC(=O)[C@H](CC(=O)O)NC(=O)[C@H](CO)NC(=O)[C@@H](NC(=O)[C@H](Cc1ccccc1)NC(=O)[C@@H](NC(=O)CNC(=O)[C@H](CCC(N)=O)NC(=O)[C@@H](CO)NC(=O)[C@@H](N)Cc1c[nH]cn1)[C@@H](C)O)[C@@H](C)O)C(=O)N[C@@H](CC(=O)O)C(=O)N[C@@H](CCC(=O)O)C(=O)N[C@@H](CCCNC(=N)N)C(=O)N[C@@H](C)C(=O)N[C@@H](C)C(=O)N[C@@H](CCC(N)=O)C(=O)N[C@@H](CC(=O)O)C(=O)N[C@@H](Cc1ccccc1)C(=O)N[C@H](C(=O)N[C@@H](CCC(N)=O)C(=O)N[C@@H](Cc1c[nH]c2ccccc12)C(=O)N[C@@H](CC(C)C)C(=O)N[C@@H](CC(C)C)C(=O)N[C@@H](CCCCN)C(=O)N[C@H](C(N)=O)[C@@H](C)O)C(C)C [compound 9]
0.78 nM	4.76	0.37 nM	CC(C)C[C@H](NC(=O)[C@H](Cc1ccc(O)cc1)NC(=O)[C@H](Cc1ccc(CNC(=O)COCCOCCNC(=O)COCCOCCNC(=O)CC[C@H](NC(=O)CCCCCCCCCCCCCCC(=O)O)C(=O)O)cc1)NC(=O)[C@H](CO)NC(=O)[C@H](Cc1ccc(O)cc1)NC(=O)[C@H](CC(=O)O)NC(=O)[C@H](CO)NC(=O)[C@@H](NC(=O)[C@H](Cc1ccccc1)NC(=O)[C@@H](NC(=O)CNC(=O)[C@H](CCC(N)=O)NC(=O)[C@@H](CO)NC(=O)[C@@H](N)Cc1c[nH]cn1)[C@@H](C)O)[C@@H](C)O)C(=O)N[C@@H](CC(=O)O)C(=O)N[C@@H](CCC(=O)O)C(=O)N[C@@H](CCCNC(=N)N)C(=O)N[C@@H](C)C(=O)N[C@@H](C)C(=O)N[C@@H](CCC(N)=O)C(=O)N[C@@H](CC(=O)O)C(=O)N[C@@H](Cc1ccccc1)C(=O)N[C@H](C(=O)N[C@@H](CCC(N)=O)C(=O)N[C@@H](Cc1c[nH]c2ccccc12)C(=O)N[C@@H](CC(C)C)C(=O)N[C@@H](CCS(C)(=O)=O)C(=O)N[C@@H](CC(=O)O)C(=O)N[C@H](C(N)=O)[C@@H](C)O)C(C)C [compound 24] (H-H[dS]QGTFTSDYS[Phe(4-CH2NH2)]([AEEA-AEEA-γGlu-C16 diacid])YLDERAAQDFVQWL[Met(O2)]DT-NH2; N-terminus assumed)
0.26 nM	0.70	0.37 nM	CC(C)C[C@H](NC(=O)[C@H](Cc1ccc(O)cc1)NC(=O)[C@H](CCCCN)NC(=O)[C@H](CO)NC(=O)[C@H](Cc1ccc(O)cc1)NC(=O)[C@H](CC(=O)O)NC(=O)[C@H](CO)NC(=O)[C@@H](NC(=O)[C@H](Cc1ccccc1)NC(=O)[C@@H](NC(=O)CNC(=O)[C@H](CCC(N)=O)NC(=O)C(C)(C)NC(=O)[C@@H](N)Cc1c[nH]cn1)[C@@H](C)O)[C@@H](C)O)C(=O)N[C@@H](CC(=O)O)C(=O)N[C@@H](C)C(=O)N[C@@H](CCCNC(=N)N)C(=O)N[C@@H](C)C(=O)N[C@@H](C)C(=O)N[C@@H](Cc1ccc(CNC(=O)COCCOCCNC(=O)COCCOCCNC(=O)CC[C@H](NC(=O)CCCCCCCCCCCCCCCCC(=O)O)C(=O)O)cc1)C(=O)N[C@@H](CC(=O)O)C(=O)N[C@@H](Cc1ccccc1)C(=O)N[C@H](C(=O)N[C@@H](CCC(N)=O)C(=O)N[C@@H](Cc1c[nH]c2ccccc12)C(=O)N[C@@H](CC(C)C)C(=O)N[C@@H](CC(C)C)C(=O)N[C@@H](CC(=O)O)C(=O)N[C@H](C(N)=O)[C@@H](C)O)C(C)C [compound 31] (H-H[Aib]QGTFTSDYSKYLDARAA[Phe(4-CH2NH2)]([AEEA-AEEA-γGlu-C18 diacid])DFVQWLLDT-NH2)
0.14 nM	1.89	0.07 nM	CC(C)C[C@H](NC(=O)[C@H](Cc1ccc(O)cc1)NC(=O)[C@H](CCCCN)NC(=O)[C@H](CO)NC(=O)[C@H](Cc1ccc(CNC(=O)COCCOCCNC(=O)COCCOCCNC(=O)CC[C@H](NC(=O)CCCCCCCCCCCCCCC(=O)O)C(=O)O)cc1)NC(=O)[C@H](CC(=O)O)NC(=O)[C@H](CO)NC(=O)[C@@H](NC(=O)[C@H](Cc1ccccc1)NC(=O)[C@@H](NC(=O)CNC(=O)[C@H](CCC(N)=O)NC(=O)C(C)(C)NC(=O)[C@@H](N)Cc1c[nH]cn1)[C@@H](C)O)[C@@H](C)O)C(=O)N[C@@H](CC(=O)O)C(=O)N[C@@H](C)C(=O)N[C@@H](CCCNC(=N)N)C(=O)N[C@@H](C)C(=O)N[C@@H](C)C(=O)N[C@@H](CCC(N)=O)C(=O)N[C@@H](CC(=O)O)C(=O)N[C@@H](Cc1ccccc1)C(=O)N[C@H](C(=O)N[C@@H](CCC(N)=O)C(=O)N[C@@H](Cc1c[nH]c2ccccc12)C(=O)N[C@@H](CC(C)C)C(=O)N[C@@H](CCS(C)(=O)=O)C(=O)N[C@@H](CC(=O)O)C(=O)N[C@H](C(N)=O)[C@@H](C)O)C(C)C [compound 12] (H-H[Aib]QGTFTSD[Phe(4-CH2NH2)]([AEEA-AEEA-γGlu-C16 diacid])SKYLDARAAQDFVQWL[Met(O2)]DT-NH2; N-terminus assumed)
0.86 nM	0.6	1.39 nM	CC(C)C[C@H](NC(=O)[C@H](Cc1ccc(O)cc1)NC(=O)[C@H](CCCCN)NC(=O)[C@H](CO)NC(=O)[C@H](Cc1ccc(O)cc1)NC(=O)[C@H](CC(=O)O)NC(=O)[C@H](CO)NC(=O)[C@@H](NC(=O)[C@H](Cc1ccccc1)NC(=O)[C@@H](NC(=O)CNC(=O)[C@H](CCC(N)=O)NC(=O)C(C)(C)NC(=O)[C@@H](N)Cc1c[nH]cn1)[C@@H](C)O)[C@@H](C)O)C(=O)N[C@@H](CC(=O)O)C(=O)N[C@@H](C)C(=O)N[C@@H](CCCNC(=N)N)C(=O)N[C@@H](C)C(=O)N[C@@H](C)C(=O)N[C@@H](CCCCNC(=O)COCCOCCNC(=O)COCCOCCNC(=O)CC[C@H](NC(=O)CCCCCCCCCCCCCCCCC(=O)O)C(=O)O)C(=O)N[C@@H](CC(=O)O)C(=O)N[C@@H](Cc1ccccc1)C(=O)N[C@H](C(=O)N[C@@H](CCC(N)=O)C(=O)N[C@@H](Cc1c[nH]c2ccccc12)C(=O)N[C@@H](CC(C)C)C(=O)N[C@@H](CCS(C)(=O)=O)C(=O)N[C@@](C)(CC(=O)O)C(=O)N[C@H](C(N)=O)[C@@H](C)O)C(C)C [compound 74] (H-H[Aib]QGTFTSDYSKYLDARAAK([AEEA-AEEA-γGlu-C18 diacid])DFVQWL[Met(O2)][αMeD]T-NH2)
0.12 nM	0.26	0.46 nM	CC(C)C[C@H](NC(=O)[C@H](Cc1ccc(O)cc1)NC(=O)[C@H](CCCCN)NC(=O)[C@H](CO)NC(=O)[C@H](Cc1ccc(CNC(=O)COCCOCCNC(=O)COCCOCCNC(=O)CC[C@H](NC(=O)CCCCCCCCCCCCCCC(=O)O)C(=O)O)cc1)NC(=O)[C@H](CC(=O)O)NC(=O)[C@H](CO)NC(=O)[C@@H](NC(=O)[C@H](Cc1ccccc1)NC(=O)[C@@H](NC(=O)CNC(=O)[C@H](CCC(N)=O)NC(=O)[C@@H](CO)NC(=O)[C@@H](N)Cc1c[nH]cn1)[C@@H](C)O)[C@@H](C)O)C(=O)N[C@@H](CC(=O)O)C(=O)N[C@@H](CCC(=O)O)C(=O)N[C@@H](CCCNC(=N)N)C(=O)N[C@@H](C)C(=O)N[C@@H](C)C(=O)N[C@@H](CCC(N)=O)C(=O)N[C@@H](CC(=O)O)C(=O)N[C@@H](Cc1ccccc1)C(=O)N[C@H](C(=O)N[C@@H](CCC(N)=O)C(=O)N[C@@H](Cc1c[nH]c2ccccc12)C(=O)N[C@@H](CC(C)C)C(=O)N[C@@H](CC(C)C)C(=O)N[C@@H](CCCCN)C(=O)N[C@H](C(N)=O)[C@@H](C)O)C(C)C [compound 10] (H-H[dS]QGTFTSD[Phe(4-CH2NH2)]([AEEA-AEEA-γGlu-C16 diacid])SKYLDERAAQDFVQWLLKT-NH2; N-terminus assumed)
0.07 nM	2.19	0.03 nM	CC(C)C[C@H](NC(=O)[C@H](Cc1ccc(O)cc1)NC(=O)[C@H](CCCCN)NC(=O)[C@H](CO)NC(=O)[C@H](Cc1ccc(O)cc1)NC(=O)[C@H](CC(=O)O)NC(=O)[C@H](CO)NC(=O)[C@@H](NC(=O)[C@H](Cc1ccccc1)NC(=O)[C@@H](NC(=O)CNC(=O)[C@H](CCC(N)=O)NC(=O)C(C)(C)NC(=O)[C@@H](N)Cc1c[nH]cn1)[C@@H](C)O)[C@@H](C)O)C(=O)N[C@@H](CC(=O)O)C(=O)N[C@@H](C)C(=O)N[C@@H](CCCNC(=N)N)C(=O)N[C@@H](C)C(=O)N[C@@H](C)C(=O)N[C@@H](CCC(N)=O)C(=O)N[C@@H](CCCCNC(=O)COCCOCCNC(=O)COCCOCCNC(=O)CC[C@H](NC(=O)CCCCCCCCCCCCCCC(=O)O)C(=O)O)C(=O)N[C@@H](Cc1ccccc1)C(=O)N[C@H](C(=O)N[C@@H](CCC(N)=O)C(=O)N[C@@H](Cc1c[nH]c2ccccc12)C(=O)N[C@@H](CC(C)C)C(=O)N[C@@H](CC(C)C)C(=O)N[C@@H](CC(=O)O)C(=O)N[C@H](C(N)=O)[C@@H](C)O)C(C)C [compound 18] (H-H[Aib]QGTFTSDYSKYLDARAAQK([AEEA-AEEA-γGlu-C16 diacid])FVQWLLDT-NH2)
